Patent US10174013B2, “Benzimidazole derivatives as kinase inhibitors” (SELVITA S.A., priority 2012, dated 2019)
Like-named read-outs stand apart in the source and are kept apart here.

Tests used:
[1] = target: FLT3wt (Homo sapiens (Human), UniProt P36888); assay: ADP-Glo Kinase Assay, Flt3 wt; type: biochemical; conditions: 1 μM compound; for inhibition at 1 µM: read-out: Flt3wt % INH (1 μM)
In short: (§1)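 Compounds were diluted in assay buffer to 1000 nM and incubated with kinase, substrate and ATP at apparent Km. Remaining ATP was depleted, ADP converted to ATP and detected by luciferase; percent inhibition came from normalized luminescence.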

[2] = target: CDK2/E (Homo sapiens (Human), UniProt P24941); assay: ADP-Glo Kinase Assay, CDK2/E; type: biochemical; conditions: 1 μM compound; for inhibition at 1 µM: read-out: CDK2/E % INH (1 μM)
In short: as §1

[3] = target: Pim-1 (Homo sapiens (Human), UniProt P11309); assay: ADP-Glo Kinase Assay, Pim-1; type: biochemical; conditions: 1 μM compound; for inhibition at 1 µM: read-out: Pim-1 % INH (1 μM)
In short: as §1

[4] = system: MV4-11 cells; assay: Growth inhibition, MTS assay, MV4-11; type: cell-based, Human; conditions: MTS cell viability, read-out: MV4-11 ED50
[5] = system: HepG2 cells; assay: Growth inhibition, MTS assay, HepG2; type: cell-based, Human; conditions: MTS cell viability, read-out: HepG2 ED50
[6] = system: MOLM16 cells; assay: Growth inhibition, MTS assay, MOLM16; type: cell-based, Human; conditions: MTS cell viability, read-out: MOLM 16 ED50
From the text: The following cell lines, were obtained and used in tests as outlined below: • Human myelomonocytic, biphenotypic leukemia MV4-11 cells (harboring a Flt3-ITD mutation); • Human Acute Myeloid Leukemia MOLM16 cells; • Human Acute Myeloid Leukemia MOLM13 cells (harboring a Flt3-ITD mutation); • Human Myeloid Leukemia KG-1 cells; • Human erythroleukemia HEL92 cells; • Human mantle cell lymphoma Jeko-1 cells; • Human hepatocellular carcinoma HepG2 cells; and • Human colon adenocarcinoma SW-480 cells.
The assays were carried out according to the following protocol, which is described as an example for the MV4-11 cells:
Ten thousand MV4-11 cells were inoculated into each well of a 96-well microplate (manufactured by Corning Corp.) using Iscove's MDM medium (culture medium) containing 10% fetal calf serum (FCS). The same day, a dimethyl sulfoxide (DMSO) solution of each test compound prepared in a concentration of 10 mmol/L was further diluted with DMSO to the desired concentrations (0.1, 0.5, 1, 2.5, 5 and 10 micromol/L), and the diluted solution was added to each well. The individual wells were further cultured in 5% carbon dioxide at 37° C. for 72 hours. […] Briefly, 10 μl MTS (3-(4,5-Dimethyl-2-thiazolyl)-5-(carboxymethoxyphenyl)-2-(4-sulfophenyl)-2H-tetrazolium was added to each well, and culturing was performed in 5% carbon dioxide at 37° C. for 2 hours. After this incubation and using a microplate spectrophotometer (Synergy 2 multi-mode microplate reader (BioTek)), the absorbance of each well was measured at 490 nm. The value for cells not incubated with a test compound was designated as 100%. By comparing these values with the absorbance difference obtained at the well in which each test compound was added, the cell viability (% viability) after treatment with the test compound was calculated.

[7] = target: DYRK1 (Homo sapiens (Human), UniProt Q13627); assay: ADP-Glo Kinase Assay, DYRK1; type: biochemical; conditions: 1 μM compound; for inhibition at 1 µM: read-out: DYRK1A % INH (1 μM)
In short: as §1

[8] = system: HEL92 cells; assay: Growth inhibition, MTS assay, HEL92; type: cell-based, Human; conditions: MTS cell viability, read-out: HEL92 ED50
[9] = target: CYP3A4 (Homo sapiens (Human), UniProt P08684); assay: Cytochrome P450 inhibition, fluorescence, CYP3A4; type: in vitro ADME; conditions: recombinant CYP3A4, fluorescence detection; read-out: CYP inhibition (CYP 3A4 screening, IC50 class)
Description: The assays for cytochrome P450 inhibition facilitate the identification of drug candidates with lower potential for drug-drug interactions (weak enzymes inhibitors). In vitro experiments were conducted to determine whether a drug inhibits a specific CYP enzyme. The experiments comprised the incubation of the drug with probe substrates for the CYP enzymes, wherein the following recombinant cytochrome P450 isoforms were employed: CYP1A2, CYP2C8, CYP2C9, CYP2C19, CYP2D6 and CYP3A4, together with various probe substrates enabling fluorescence detection. The protocol uses a single substrate concentration near the apparent Km and multiple compound concentrations.
The assay was performed in 96-well microtiter plates. The row designations were A through H and the column designations were 1 through 12. […] Each compound (see Table 6 for tested compounds) was added to the wells in column 1 and serially diluted to the wells in column 8. Wells 9 and 10 were control wells which contained no test compound (therefore no inhibition-full signal is detected.) The wells in columns 11 and 12 were blanks, where STOP solution was added prior to the addition of the enzyme/substrate mix to the NADPH regenerating system (the only signal present in these wells is background noise.) The assay was conducted in a final volume of 0.2 ml per well.
The stock solutions of the tested compounds were prepared in DMSO at 10 mM concentration. […] After mixing the compounds with solution containing NADPH-cofactors, the mixed plate was preincubated in a 37° C. incubator for at least 10 minutes; next, the fluorescence of compounds using recommended excitation/emission filters was measured in order to eliminate false results originating from autofluorescence of the compounds. In the following step, the enzyme/substrate mix was added to columns 1 through 10 and the plates were incubated at 37° C. for specific times depending on the CYP tested (incubation times ranged from 30 to 45 minutes). After adding STOP SOLUTION to all wells and respective enzyme/substrate mix to the wells in columns 11 and 12, the plate was scanned with a fluorescent plate scanner. The excitation/emission filters used for the specific assays are described in the GenTest Screening Kit instruction manual.

[10] = target: Pim-3 (Homo sapiens (Human), UniProt Q86V86); assay: ADP-Glo Kinase Assay, Pim-3; type: biochemical; conditions: 1 μM compound; read-out: Pim-3 % INH (1 μM)
In short: as §1

Sequence of Pim-1 (P11309 whole entry): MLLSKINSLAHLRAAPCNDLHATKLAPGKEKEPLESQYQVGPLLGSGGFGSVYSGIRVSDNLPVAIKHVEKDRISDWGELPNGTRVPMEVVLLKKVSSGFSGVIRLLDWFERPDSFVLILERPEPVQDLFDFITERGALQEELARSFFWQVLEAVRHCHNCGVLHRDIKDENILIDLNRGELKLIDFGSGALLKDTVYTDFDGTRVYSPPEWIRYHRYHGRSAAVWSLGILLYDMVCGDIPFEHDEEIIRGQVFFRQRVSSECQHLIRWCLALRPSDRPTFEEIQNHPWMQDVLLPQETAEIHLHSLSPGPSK
Sequence of FLT3wt (P36888 27-993): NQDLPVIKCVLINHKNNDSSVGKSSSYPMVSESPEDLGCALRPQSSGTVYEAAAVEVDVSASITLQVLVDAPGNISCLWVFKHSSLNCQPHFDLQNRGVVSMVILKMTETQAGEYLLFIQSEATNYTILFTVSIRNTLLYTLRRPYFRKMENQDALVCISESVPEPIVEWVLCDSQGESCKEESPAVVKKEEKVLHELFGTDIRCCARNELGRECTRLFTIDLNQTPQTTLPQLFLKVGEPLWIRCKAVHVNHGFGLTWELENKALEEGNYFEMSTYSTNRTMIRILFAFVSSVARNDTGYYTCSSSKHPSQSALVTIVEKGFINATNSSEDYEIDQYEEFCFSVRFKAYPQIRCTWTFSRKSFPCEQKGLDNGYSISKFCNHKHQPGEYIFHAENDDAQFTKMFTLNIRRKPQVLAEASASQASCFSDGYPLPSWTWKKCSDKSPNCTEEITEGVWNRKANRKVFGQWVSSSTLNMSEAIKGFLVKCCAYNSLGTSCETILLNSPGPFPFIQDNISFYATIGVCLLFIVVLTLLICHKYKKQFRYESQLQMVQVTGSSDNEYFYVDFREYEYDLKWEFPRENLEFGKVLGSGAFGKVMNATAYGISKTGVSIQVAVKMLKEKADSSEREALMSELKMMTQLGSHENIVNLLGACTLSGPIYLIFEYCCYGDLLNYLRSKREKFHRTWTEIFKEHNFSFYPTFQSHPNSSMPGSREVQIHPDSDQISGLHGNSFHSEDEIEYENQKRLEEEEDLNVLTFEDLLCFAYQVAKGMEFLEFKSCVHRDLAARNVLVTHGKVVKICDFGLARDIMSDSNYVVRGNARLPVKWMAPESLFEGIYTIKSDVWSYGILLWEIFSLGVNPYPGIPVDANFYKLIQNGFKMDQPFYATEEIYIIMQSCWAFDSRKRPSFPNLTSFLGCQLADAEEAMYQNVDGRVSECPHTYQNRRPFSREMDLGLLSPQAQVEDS
Sequence of CYP3A4 (P08684 whole entry, canonical isoform): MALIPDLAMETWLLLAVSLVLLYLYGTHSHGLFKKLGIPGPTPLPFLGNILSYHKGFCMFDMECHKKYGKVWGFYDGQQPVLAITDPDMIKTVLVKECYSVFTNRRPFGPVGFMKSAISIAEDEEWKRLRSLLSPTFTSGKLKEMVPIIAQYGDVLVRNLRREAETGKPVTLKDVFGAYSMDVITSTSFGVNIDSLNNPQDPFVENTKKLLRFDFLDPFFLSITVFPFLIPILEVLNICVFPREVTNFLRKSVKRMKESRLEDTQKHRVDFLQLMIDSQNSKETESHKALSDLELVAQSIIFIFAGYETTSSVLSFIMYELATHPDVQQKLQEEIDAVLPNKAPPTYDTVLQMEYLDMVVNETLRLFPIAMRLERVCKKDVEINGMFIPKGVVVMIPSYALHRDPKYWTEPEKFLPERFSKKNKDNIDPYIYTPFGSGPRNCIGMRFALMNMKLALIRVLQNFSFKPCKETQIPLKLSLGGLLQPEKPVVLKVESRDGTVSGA

Row | SMILES | inhibition at 1 µM [1] [%] | inhibition at 1 µM [2] [%] | inhibition at 1 µM [3] [%] | IC50 ([4]; Homo sapiens, MV4-11, 72 h) [µM] | IC50 ([5]; Homo sapiens, HepG2, 72 h) [µM] | IC50 ([6]; Homo sapiens, MOLM16, 72 h) [µM] | inhibition at 1 µM [7] [%] | other results
1 | CCn1c(NC2CCC(N)CC2)nc2c(C#N)c(Br)c(Br)cc21 (stereo not shown) [Example 1DV] | < 5 | 50 | > 95 | 2.1 | 2.9 | 1.5 | 95 | –
2 | CC(C)n1c(N2CCC(N)CC2)nc2c(C#N)c(Br)c(Br)cc21 [Example 1DT] | < 5 | 46 | > 95 | 1.5 | 1 | 0.3 | 34 | –
3 | NCCCn1c(N2CC[C@@H](N)C2)nc2c([N+](=O)[O-])c(Br)c(Br)cc21 [Example 3A, (3R)-1-[1-(3-aminopropyl)-5,6-dibromo-4-nitro-1H-1,3-benzodiazol-2-yl]pyrrolidin-3-amine] | < 5 | 20 | > 95 | 2.3 | 6.3 | 1.9 | – | –
4 | NCCn1c(N2CC[C@H](N)C2)nc2c([N+](=O)[O-])c(Br)c(Br)cc21 [Example 3B, (3S)-1-[1-(2-aminoethyl)-5,6-dibromo-4-nitro-1H-1,3-benzodiazol-2-yl]pyrrolidin-3-amine] | – | – | > 95 | 1.3 | – | 1.5 | 18 | –
5 | N[C@@H]1CCN(c2nc3c([N+](=O)[O-])c(Br)c(Br)cc3n2C2CCC2)C1 [Example 1DC] | – | – | – | – | – | – | – | IC50 ([8]; 72 hours): 2.0 µM; Flt3wt % INH (1 μM) [1]: 52%; Pim-1 % INH (1 μM) [3]: >95%; IC50 ([4]; 72 hours): 0.2 µM; IC50 ([5]; 72 hours): 1.0 µM; IC50 ([6]; 72 hours): 0.16 µM; DYRK1A % INH (1 μM) [7]: >95%
6 | CN[C@@H]1CCN(c2nc3c(C#N)c(Br)c(Br)cc3n2C(C)C)C1 [Example 1DW] | 8 | 48 | > 95 | 5.1 | – | 0.3 | – | –
7 | CC(C)n1c(N2CCOC(CN)C2)nc2c(C#N)c(Br)c(Br)cc21 (stereo not shown) [Example 1BM] | < 5 | < 5 | > 95 | 4.9 | 4.5 | – | – | IC50 [9]: 1.1 to 3.3 µM; inhibition at 1 µM [10]: 62%
8 | CC(C)n1c(C2CCCC(N)C2)nc2c([N+](=O)[O-])c(Br)c(Br)cc21 (single isomer, unassigned) [Example 26C, 3-[5,6-dibromo-4-nitro-1-(propan-2-yl)-1H-1,3-benzodiazol-2-yl]cyclohexan-1-amine] | – | – | – | – | – | – | – | IC50 ([8]; 72 hours): 3.0 µM; Flt3wt % INH (1 μM) [1]: 55%; CDK2/E % INH (1 μM) [2]: 55%; Pim-1 % INH (1 μM) [3]: >95%; IC50 ([4]; 72 hours): 0.1 µM; IC50 ([6]; 72 hours): 0.2 µM
9 | CC(C)n1c(N2CCNCC2)nc2c([N+](=O)[O-])c(C(F)(F)F)c(Br)cc21 [Example 9B, 6-bromo-4-nitro-2-(piperazin-1-yl)-1-(propan-2-yl)-5-(trifluoromethyl)-1H-1,3-benzodiazole] | – | – | 59 | 5.9 | 2.7 | 7.29 | 33 | –
10 | CCn1c(NC2CCC(N)CC2)nc2c([N+](=O)[O-])c(Br)c(Br)cc21 (stereo not shown) [Example 1DU] | – | – | – | – | – | 0.9 | – | IC50 ([8]; Homo sapiens, 72 h): 5.5 µM; Flt3wt % INH (1 μM) [1]: 12%; CDK2/E % INH (1 μM) [2]: 53%; Pim-1 % INH (1 μM) [3]: >95%; IC50 ([4]; 72 hours): 1.0 µM; IC50 ([5]; 72 hours): 1.3 µM; DYRK1A % INH (1 μM) [7]: 39%
11 | NC(=O)Cn1c(N2CCNCC2)nc2c([N+](=O)[O-])c(Br)c(Br)cc21 [Example 2L, 2-[5,6-dibromo-4-nitro-2-(piperazin-1-yl)-1H-1,3-benzodiazol-1-yl]acetamide] | – | – | 67 | 6.1 | – | 3.1 | – | –

Now from value to compound, other results behind:

Row | inhibition at 1 µM [1] [%] | inhibition at 1 µM [2] [%] | inhibition at 1 µM [3] [%] | IC50 ([4]; Homo sapiens, MV4-11, 72 h) [µM] | IC50 ([5]; Homo sapiens, HepG2, 72 h) [µM] | IC50 ([6]; Homo sapiens, MOLM16, 72 h) [µM] | inhibition at 1 µM [7] [%] | SMILES | other results
12 | 43 | 36 | > 95 | – | – | 0.1 | – | CC(C)n1c(C2CCCC(N)C2)nc2c([N+](=O)[O-])c(Br)c(Br)cc21 (single isomer, unassigned) [Example 26B, 3-[5,6-dibromo-4-nitro-1-(propan-2-yl)-1H-1,3-benzodiazol-2-yl]cyclohexan-1-amine] | IC50 ([8]; 72 hours): 6.1 µM; IC50 ([4]; 72 hours): 0.4 µM
13 | 38 | 36 | > 95 | 0.8 | – | 1 | – | CC(C)n1c(C2CCC(N)CC2)nc2c([N+](=O)[O-])c(Br)c(Br)cc21 (stereo not shown) [Example 26D, 4-[5,6-dibromo-4-nitro-1-(propan-2-yl)-1H-1,3-benzodiazol-2-yl]cyclohexan-1-amine] | IC50 ([8]; Homo sapiens, 72 h): 9.7 µM
14 | – | – | 76 | 2.7 | > 10 | 2.8 | 95 | CC(C)n1c(N2C[C@H]3C[C@@H]2CN3)nc2c([N+](=O)[O-])c(Br)c(Br)cc21 [Example 22AE, 5,6-dibromo-2-[(1R,4R)-2,5-diazabicyclo[2.2.1]heptan-2-yl]-4-nitro-1-(propan-2-yl)-1H-1,3-benzodiazole] | –
